The results in this text go back to ChEMBL document CHEMBL1201862, “PubChem BioAssay data set” (2004).

Activity calls are given as the source filed them.

Assay [1] concerns the target Glycogen synthase kinase-3 beta (Homo sapiens, UniProt P49841). In kind it is functional.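 Further: value comes from a broad kinome profiling panel, with GSK3B as the panel member.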
For assay [2], the target named is Serine/threonine-protein kinase pim-1 (Homo sapiens, UniProt P11309). It counts as functional.
For assay [3], the target named is Interleukin-1 receptor-associated kinase 4 (Homo sapiens, UniProt Q9NWZ3). In kind it is functional.
Assay [4] deals with Cell division cycle 7-related protein kinase (Homo sapiens, UniProt O00311). In kind it is functional.
Chain of Cell division cycle 7-related protein kinase (O00311 whole entry): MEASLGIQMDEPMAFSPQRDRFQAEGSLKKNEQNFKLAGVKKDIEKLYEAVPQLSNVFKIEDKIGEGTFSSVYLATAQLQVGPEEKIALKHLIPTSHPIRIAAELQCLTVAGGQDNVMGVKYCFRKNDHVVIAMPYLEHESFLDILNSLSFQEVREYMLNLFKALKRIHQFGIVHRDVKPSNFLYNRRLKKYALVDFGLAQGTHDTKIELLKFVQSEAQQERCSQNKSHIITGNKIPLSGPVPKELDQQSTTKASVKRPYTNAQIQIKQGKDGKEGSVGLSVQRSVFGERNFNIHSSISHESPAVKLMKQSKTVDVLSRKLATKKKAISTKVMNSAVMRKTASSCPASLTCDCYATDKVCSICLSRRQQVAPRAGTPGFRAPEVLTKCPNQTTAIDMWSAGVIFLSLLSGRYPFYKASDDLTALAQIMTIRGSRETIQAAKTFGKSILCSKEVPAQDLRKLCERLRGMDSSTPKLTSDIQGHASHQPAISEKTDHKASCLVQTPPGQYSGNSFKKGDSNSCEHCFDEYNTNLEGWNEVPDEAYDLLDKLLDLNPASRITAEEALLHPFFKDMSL
The target of assay [5] is cAMP-dependent protein kinase catalytic subunit alpha (Homo sapiens, UniProt P17612). It counts as functional.
Assay [6] has as its target Homeodomain-interacting protein kinase 2 (Homo sapiens, UniProt Q9H2X6). In kind it is functional.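 Further: measured within a kinome-wide kinase profiling panel, HIPK2 being one panel member.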
Assay [7] concerns the target Mitogen-activated protein kinase kinase kinase kinase 4 (Homo sapiens, UniProt O95819). In kind it is functional.
For assay [8], the target named is Dual specificity protein kinase CLK4 (Homo sapiens, UniProt Q9HAZ1). It counts as functional.
Chain of Dual specificity protein kinase CLK4 (Q9HAZ1 whole entry): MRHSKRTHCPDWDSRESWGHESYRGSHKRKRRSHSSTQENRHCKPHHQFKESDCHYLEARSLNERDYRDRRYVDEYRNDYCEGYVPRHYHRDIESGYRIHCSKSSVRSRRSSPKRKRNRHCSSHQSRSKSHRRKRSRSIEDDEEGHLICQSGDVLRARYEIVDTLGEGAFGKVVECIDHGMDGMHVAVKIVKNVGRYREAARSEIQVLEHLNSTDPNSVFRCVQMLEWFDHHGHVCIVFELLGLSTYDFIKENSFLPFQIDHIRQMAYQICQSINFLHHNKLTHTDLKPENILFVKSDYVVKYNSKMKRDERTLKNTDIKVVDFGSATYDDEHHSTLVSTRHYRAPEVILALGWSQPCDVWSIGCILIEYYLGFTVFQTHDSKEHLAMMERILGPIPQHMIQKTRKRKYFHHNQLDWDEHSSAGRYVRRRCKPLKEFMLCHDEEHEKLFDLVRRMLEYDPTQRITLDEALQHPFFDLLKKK
Assay [9] addresses Serine/threonine-protein kinase Chk1 (Homo sapiens, UniProt O14757). It counts as functional.
The target in a further assay is LIM domain kinase 1 (Homo sapiens, UniProt P53667). As to the kind of experiment: Navigating the Kinome. Panel member name: LIMK1. In kind it is functional.
Chain of LIM domain kinase 1 (P53667 whole entry, the tested form may be a part): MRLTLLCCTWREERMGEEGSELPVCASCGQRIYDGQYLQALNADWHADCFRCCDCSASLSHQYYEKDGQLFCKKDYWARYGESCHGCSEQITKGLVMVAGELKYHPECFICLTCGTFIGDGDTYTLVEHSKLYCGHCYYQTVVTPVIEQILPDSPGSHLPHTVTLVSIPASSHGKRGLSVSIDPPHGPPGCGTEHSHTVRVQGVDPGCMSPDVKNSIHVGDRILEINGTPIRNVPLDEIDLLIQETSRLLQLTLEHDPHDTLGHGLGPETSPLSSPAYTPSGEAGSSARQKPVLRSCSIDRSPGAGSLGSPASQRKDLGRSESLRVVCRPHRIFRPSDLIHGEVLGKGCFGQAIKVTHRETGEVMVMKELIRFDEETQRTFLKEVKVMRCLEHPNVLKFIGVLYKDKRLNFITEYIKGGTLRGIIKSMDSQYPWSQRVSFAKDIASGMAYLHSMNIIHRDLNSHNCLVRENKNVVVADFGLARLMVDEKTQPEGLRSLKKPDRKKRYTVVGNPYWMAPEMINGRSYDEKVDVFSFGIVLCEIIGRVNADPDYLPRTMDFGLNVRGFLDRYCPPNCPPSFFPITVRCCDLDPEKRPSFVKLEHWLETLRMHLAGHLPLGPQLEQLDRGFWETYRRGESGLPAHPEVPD
For assay [10], the target named is Latent membrane protein 1 (Human herpesvirus 4 (strain B95-8), UniProt P03230). As to the kind of experiment: TES1-eGFP NF-kB reporter inhibition versus Tet-On dsRED, dose response, selectivity assay for LMP1 NF-kB inhibitor project, imaging, HEK293T, dual-color eGFP/dsRED, cherry-picks (AID 588398). In kind it is functional, cell-based.
In the next assay the test system is HEK293. As to the kind of experiment: inhibitors of LMP1-driven NF-kB reporter, dose response, cell-based, HEK293, luciferase, cherry-pick (AID 588343). As to conditions: Homo sapiens. It counts as functional.
The next assay deals with CHO. As to the kind of experiment: cytotoxicity in TLR9-MyD88 CHO cells, dose response, cytotoxicity control for TLR9-MyD88 binding inhibitor project, cell-based, luminescence (AID 588339).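 Further: CHO cells stably coexpressing TLR9 and MyD88 fusions from primary screen; compound exposure lasted 48 hours before viability readout.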 In kind it is functional, hamster. Particulars: Cricetulus griseus.
Another assay addresses Beta Lactamase (Pseudomonas aeruginosa, UniProt Q932Y6). Briefly: beta-lactamase reporter inhibitor potency, dose response, artefact control for TLR9-MyD88 binding inhibitor project, BLA reporter cells, FRET fluorescence (AID 588341).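 Further: cell based assay in CHO-K1 cells stably expressing beta-lactamase.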 It counts as cell-based.
In assay [11] the target is T1, Corticotropin-releasing factor receptor 2/Corticotropin-releasing factor-binding protein (Homo sapiens, UniProt P24387+Q13324).
T1 sequence (Q13324 whole entry): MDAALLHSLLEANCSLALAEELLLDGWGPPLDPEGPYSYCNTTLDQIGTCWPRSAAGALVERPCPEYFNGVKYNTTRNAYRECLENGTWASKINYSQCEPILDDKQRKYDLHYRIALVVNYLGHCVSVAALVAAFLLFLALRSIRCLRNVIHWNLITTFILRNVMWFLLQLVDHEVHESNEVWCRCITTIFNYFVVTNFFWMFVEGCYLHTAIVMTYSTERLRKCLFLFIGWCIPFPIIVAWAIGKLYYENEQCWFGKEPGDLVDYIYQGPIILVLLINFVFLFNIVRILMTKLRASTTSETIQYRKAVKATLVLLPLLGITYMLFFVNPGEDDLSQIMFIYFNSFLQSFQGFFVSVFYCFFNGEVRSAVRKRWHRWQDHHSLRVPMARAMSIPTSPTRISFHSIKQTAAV
T1 sequence (P24387 whole entry): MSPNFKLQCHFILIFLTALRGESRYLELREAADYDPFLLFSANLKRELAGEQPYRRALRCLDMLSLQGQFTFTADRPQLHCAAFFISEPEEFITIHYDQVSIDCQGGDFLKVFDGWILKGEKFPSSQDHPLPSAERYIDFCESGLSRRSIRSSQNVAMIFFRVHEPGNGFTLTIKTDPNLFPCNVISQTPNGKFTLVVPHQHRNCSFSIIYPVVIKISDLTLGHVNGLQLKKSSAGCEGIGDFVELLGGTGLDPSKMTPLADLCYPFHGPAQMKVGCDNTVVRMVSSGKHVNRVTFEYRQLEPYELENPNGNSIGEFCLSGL
Briefly: activators of CRF receptor 2 with binding protein – uHTS hits, confirmation (AID 602473). As to conditions: read-out: EC50_Mean. It counts as functional.

For assay [12], the target named is T2, Sentrin-specific protease 6 (Homo sapiens, UniProt Q9GZR1).
T2 sequence (Q9GZR1 whole entry): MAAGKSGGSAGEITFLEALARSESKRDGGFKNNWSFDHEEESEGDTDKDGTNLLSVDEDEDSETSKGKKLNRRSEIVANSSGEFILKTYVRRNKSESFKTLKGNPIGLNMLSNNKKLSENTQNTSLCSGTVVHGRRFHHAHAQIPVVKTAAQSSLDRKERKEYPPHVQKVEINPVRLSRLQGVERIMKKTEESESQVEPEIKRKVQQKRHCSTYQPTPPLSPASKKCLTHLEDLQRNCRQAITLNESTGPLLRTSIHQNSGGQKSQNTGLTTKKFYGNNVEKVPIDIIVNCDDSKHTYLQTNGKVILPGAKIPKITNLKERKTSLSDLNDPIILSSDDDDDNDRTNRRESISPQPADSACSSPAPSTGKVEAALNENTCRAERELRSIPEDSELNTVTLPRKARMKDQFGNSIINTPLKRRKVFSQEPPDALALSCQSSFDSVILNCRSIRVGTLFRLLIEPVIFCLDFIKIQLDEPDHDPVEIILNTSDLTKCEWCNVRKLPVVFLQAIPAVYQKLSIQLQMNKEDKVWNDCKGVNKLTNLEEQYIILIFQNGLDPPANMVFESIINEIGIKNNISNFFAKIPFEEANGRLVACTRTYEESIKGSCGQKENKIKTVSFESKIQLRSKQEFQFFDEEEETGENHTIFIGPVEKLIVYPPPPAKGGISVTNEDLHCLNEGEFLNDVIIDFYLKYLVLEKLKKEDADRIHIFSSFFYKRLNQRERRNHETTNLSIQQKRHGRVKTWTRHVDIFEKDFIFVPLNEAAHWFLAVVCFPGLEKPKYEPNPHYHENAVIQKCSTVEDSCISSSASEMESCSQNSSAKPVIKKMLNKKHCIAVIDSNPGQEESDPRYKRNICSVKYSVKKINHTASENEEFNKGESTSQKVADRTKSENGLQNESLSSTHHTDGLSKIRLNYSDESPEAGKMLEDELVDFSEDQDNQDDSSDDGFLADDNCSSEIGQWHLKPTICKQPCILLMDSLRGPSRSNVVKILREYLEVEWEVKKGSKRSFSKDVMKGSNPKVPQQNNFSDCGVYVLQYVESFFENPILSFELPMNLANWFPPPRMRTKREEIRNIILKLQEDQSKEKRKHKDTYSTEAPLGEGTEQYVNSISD
Briefly: SAR Analysis of small molecule inhibitors of Sentrin-specific protease 6 (SENP6) using a Luminescent assay. [Related pubchem assays (depositor defined):AID2582, AID2599]. It counts as functional.

Assay [13] deals with T3, Sentrin-specific protease 8 (Homo sapiens, UniProt Q96LD8).
T3 sequence (Q96LD8 whole entry): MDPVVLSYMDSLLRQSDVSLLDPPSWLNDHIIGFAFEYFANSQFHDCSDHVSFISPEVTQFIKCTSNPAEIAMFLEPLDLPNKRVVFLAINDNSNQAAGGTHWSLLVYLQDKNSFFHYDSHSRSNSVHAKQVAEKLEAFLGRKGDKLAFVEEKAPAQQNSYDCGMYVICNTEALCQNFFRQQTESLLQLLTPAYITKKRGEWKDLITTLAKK
As to the kind of experiment: SENP8 protease inhibitors, SAR follow-up, biochemical, luminescence (AID 504501). In kind it is functional.

The target of a further assay is T4, Caspase-3 (Homo sapiens, UniProt P42574).
T4 sequence (P42574 whole entry): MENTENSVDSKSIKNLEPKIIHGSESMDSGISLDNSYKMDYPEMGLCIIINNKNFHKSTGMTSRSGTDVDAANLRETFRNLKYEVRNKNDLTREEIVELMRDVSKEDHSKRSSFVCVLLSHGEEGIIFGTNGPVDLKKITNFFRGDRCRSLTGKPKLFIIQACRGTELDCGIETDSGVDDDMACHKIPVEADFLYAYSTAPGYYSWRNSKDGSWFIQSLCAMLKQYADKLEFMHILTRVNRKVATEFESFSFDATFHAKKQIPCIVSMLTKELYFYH
Briefly: SAR Analysis of small molecule inhibitors of Sentrin-specific proteases (SENPs) using a Caspase-3 Selectivity assay. [Related pubchem assays (depositor defined):AID2540, AID2599, AID434973, AID489001]. It counts as functional.

The target in assay [14] is T5, Sentrin-specific protease 7 (Homo sapiens, UniProt Q9BQF6).
T5 sequence (Q9BQF6 whole entry): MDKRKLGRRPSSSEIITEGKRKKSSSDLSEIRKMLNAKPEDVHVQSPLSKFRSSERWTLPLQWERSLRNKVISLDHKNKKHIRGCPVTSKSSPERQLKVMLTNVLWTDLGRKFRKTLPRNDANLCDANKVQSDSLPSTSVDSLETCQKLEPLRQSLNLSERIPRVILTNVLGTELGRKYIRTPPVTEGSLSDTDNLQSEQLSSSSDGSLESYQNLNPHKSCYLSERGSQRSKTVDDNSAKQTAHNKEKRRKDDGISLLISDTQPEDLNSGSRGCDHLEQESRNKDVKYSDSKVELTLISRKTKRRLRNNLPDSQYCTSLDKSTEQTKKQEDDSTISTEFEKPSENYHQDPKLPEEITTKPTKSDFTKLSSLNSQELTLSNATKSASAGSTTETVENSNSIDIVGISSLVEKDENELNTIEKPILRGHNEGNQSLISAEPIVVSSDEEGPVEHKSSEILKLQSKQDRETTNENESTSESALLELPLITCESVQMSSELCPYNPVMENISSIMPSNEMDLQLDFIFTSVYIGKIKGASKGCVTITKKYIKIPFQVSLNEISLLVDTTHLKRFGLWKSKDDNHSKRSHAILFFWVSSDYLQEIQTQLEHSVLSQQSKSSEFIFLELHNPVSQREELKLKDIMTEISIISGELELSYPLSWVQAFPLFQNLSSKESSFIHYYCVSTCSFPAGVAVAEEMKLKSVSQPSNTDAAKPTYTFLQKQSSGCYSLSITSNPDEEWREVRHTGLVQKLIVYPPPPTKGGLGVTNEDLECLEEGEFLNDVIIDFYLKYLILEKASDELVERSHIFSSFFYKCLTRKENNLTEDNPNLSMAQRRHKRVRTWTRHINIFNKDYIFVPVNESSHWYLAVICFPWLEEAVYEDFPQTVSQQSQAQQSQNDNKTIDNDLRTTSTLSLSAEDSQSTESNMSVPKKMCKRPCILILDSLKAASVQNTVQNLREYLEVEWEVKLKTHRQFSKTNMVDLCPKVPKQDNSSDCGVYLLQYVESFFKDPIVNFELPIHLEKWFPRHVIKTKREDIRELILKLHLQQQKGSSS
Briefly: SENP7 protease inhibitors, SAR follow-up, biochemical, luminescence (AID 504497). In kind it is functional.

For assay [15], the target named is cAMP-dependent protein kinase catalytic subunit PRKX (Homo sapiens, UniProt P51817). In kind it is functional.
Chain of cAMP-dependent protein kinase catalytic subunit PRKX (P51817 whole entry): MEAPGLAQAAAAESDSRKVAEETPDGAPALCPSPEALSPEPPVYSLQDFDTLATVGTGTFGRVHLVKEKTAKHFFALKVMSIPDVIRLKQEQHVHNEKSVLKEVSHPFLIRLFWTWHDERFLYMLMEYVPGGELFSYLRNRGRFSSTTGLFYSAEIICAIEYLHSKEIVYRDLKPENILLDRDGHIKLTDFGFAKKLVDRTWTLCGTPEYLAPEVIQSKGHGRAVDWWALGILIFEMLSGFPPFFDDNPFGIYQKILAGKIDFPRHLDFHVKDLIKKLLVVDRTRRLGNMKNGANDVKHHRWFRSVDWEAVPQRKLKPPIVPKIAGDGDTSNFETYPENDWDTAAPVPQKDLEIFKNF
Assay [16] has as its target Vascular endothelial growth factor receptor 2 (Homo sapiens, UniProt P35968). It counts as functional.
Assay [17] addresses Leucine-rich repeat serine/threonine-protein kinase 2 (Homo sapiens, UniProt Q5S007). In kind it is functional.
In assay [18] the target is Tyrosine-protein kinase JAK2 (Homo sapiens, UniProt O60674). It counts as functional.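 Further: JAK2 tested as one member of a kinase panel.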
In assay [19] the target is Leukocyte tyrosine kinase receptor (Homo sapiens, UniProt P29376). As to the kind of experiment: Navigating the Kinome. Panel member name: LTK. In kind it is functional.
Assay [20] is described as follows: nonselective inhibitors of cellular cAMP signaling, dose response, counter-screen for MC4R biased antagonist project, cell-based, TR-FRET cAMP detection (AID 602305).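 Further: U2OS cells stimulated with forskolin near its EC80 as the cAMP inducer; potency is for inhibition of forskolin-stimulated cAMP signaling.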 In kind it is functional. (In general: Counterscreens check selectivity or assay interference.)
A further assay deals with Melanocortin receptor 4 (Homo sapiens, UniProt P32245). As to the kind of experiment: MC4R antagonist potency on cAMP, dose response, cell-based, TR-FRET, biased antagonists (AID 602298).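 Further: antagonist potency against agonist-stimulated cAMP production.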 In kind it is functional. Background: Time-resolved FRET reads energy transfer from a long-lived donor to a nearby acceptor.
Chain of Melanocortin receptor 4 (P32245 whole entry): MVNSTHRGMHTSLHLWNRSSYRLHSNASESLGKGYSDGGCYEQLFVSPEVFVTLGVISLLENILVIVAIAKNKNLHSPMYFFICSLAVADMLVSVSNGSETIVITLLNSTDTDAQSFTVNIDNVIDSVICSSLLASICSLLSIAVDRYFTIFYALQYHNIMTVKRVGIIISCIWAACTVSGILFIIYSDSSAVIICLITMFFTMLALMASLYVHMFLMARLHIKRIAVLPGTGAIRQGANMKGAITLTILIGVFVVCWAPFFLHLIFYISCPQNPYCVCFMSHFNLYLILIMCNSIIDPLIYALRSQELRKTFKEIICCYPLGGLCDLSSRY

Chain of Vascular endothelial growth factor receptor 2 (P35968 whole entry): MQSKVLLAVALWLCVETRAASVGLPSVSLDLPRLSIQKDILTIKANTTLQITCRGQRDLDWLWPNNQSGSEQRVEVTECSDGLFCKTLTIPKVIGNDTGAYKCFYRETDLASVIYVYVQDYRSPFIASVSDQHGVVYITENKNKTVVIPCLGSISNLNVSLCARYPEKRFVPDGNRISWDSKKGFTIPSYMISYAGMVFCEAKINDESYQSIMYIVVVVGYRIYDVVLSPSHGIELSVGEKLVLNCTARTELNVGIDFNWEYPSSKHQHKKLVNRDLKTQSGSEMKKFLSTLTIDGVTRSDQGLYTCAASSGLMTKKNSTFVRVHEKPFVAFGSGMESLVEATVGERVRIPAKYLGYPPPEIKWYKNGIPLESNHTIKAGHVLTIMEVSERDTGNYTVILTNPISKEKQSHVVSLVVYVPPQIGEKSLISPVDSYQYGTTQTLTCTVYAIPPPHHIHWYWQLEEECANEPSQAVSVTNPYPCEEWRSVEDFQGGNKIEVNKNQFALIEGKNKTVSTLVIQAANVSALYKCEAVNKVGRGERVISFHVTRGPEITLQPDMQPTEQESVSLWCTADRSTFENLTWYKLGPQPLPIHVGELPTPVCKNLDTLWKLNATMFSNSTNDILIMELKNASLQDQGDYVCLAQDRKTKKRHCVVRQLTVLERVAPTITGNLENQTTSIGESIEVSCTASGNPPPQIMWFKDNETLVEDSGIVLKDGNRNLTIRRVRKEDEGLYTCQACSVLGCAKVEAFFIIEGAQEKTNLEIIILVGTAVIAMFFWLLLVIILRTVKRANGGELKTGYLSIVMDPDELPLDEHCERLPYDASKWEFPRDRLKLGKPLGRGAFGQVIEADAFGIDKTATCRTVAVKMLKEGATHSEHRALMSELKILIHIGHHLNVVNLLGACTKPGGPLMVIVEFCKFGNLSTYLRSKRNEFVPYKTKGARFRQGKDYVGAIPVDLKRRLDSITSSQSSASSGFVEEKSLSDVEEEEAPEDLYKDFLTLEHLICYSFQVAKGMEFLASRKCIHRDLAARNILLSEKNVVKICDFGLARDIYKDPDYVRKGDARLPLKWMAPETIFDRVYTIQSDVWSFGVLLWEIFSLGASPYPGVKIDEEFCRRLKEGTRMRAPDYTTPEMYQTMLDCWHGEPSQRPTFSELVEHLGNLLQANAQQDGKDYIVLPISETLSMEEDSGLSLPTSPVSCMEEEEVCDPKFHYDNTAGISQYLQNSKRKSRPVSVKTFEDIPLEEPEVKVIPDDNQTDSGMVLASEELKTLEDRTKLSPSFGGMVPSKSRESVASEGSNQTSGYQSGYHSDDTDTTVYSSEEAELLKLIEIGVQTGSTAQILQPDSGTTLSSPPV
Chain of Serine/threonine-protein kinase pim-1 (P11309 whole entry): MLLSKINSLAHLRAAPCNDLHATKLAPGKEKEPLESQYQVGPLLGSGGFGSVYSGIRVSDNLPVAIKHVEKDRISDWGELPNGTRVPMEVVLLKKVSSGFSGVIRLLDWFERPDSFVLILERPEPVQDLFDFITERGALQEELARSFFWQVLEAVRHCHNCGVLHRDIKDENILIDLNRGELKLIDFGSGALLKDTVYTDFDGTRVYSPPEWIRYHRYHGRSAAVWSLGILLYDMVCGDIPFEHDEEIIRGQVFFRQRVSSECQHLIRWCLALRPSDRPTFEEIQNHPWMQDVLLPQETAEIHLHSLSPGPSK
Chain of Serine/threonine-protein kinase Chk1 (O14757 whole entry, the tested form may be a part): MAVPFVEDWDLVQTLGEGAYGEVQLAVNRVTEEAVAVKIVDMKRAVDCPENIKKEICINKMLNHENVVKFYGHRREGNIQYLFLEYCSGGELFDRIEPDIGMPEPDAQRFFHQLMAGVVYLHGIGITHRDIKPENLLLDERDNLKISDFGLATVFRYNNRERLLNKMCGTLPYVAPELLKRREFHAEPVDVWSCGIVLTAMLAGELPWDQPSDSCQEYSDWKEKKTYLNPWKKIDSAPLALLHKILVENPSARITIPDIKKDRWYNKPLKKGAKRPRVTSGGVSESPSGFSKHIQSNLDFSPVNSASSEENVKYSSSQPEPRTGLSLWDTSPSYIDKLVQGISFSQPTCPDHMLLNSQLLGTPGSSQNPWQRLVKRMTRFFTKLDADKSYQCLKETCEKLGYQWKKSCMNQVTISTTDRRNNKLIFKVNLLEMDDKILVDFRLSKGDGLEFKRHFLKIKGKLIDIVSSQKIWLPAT
Chain of Beta Lactamase (Q932Y6 whole entry): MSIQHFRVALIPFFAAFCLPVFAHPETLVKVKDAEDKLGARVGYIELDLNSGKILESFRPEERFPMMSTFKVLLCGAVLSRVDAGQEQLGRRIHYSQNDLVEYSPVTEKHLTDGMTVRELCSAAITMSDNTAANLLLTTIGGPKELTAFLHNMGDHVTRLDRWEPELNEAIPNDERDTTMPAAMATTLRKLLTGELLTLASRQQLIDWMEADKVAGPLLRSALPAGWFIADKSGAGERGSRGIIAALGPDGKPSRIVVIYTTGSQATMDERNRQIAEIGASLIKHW

Regarding `CCCCNc1c(-c2ccc3[nH]ncc3c2)nc2ncccn12`, the Ki (as a rule, a measure of affinity in units of concentration, obtained from inhibition or displacement) in assay [1] is 15.8 nM (active); in assay [2] it was 501 nM (active); in [3], > 10 µM (inactive); in assay [4], 10 nM (active); in [5] it was 1 µM (active); in assay [6] it was 100 nM (active). The inhibitory constant (Ki) in assay [7] was 1.58 µM (active); in assay [8] it was 3.98 nM (active).

As to `Clc1ccc2c(c1)NC1(CCCCC1)N2`, the Ki in [9] was 2.51 µM (active); at LIM domain kinase 1 it was 2 µM (active).

On to `CC(=O)N1c2ccc(S(=O)(=O)N3CCC(C(=O)N4CCN(c5ccc(Cl)cc5)CC4)CC3)cc2CC1C` (stereo unspecified), for which the AC50 (in general, the concentration giving half of the maximal activity seen) in assay [10] was 108 µM (active); in the assay with HEK293, 1.01 µM (active).

As to `CC(O)CN(CC(C)O)c1ccc2c(c1)Cc1cc([N+](=O)[O-])ccc1-2` (stereo unspecified), the values for the IC50 with CHO and at Beta Lactamase were > 49.8 µM (inactive) and 5.09 µM (active), respectively. For the same compound, the EC50 in assay [11] is 870 nM (active).

On to `Clc1ccc(/C=N/Nc2cc(N3CCOCC3)nc(N3CCOCC3)n2)c(Cl)c1`, for which the IC50 (in [12]; in assay [13]; on Caspase-3; in [14]) was > 99 µM (inactive) in each case.

For the compound `CC(=O)c1c(C)c2cnc(Nc3ccc(N4CCNCC4)cn3)nc2n(C2CCCC2)c1=O` [PALBOCICLIB], the Ki is 2.51 µM (active) in [15]; > 2 µM (inactive) in assay [16]; 2.51 µM (active) in [17]; > 2.51 µM (inactive) in [18]; > 2.51 µM (inactive) in assay [19].

Turning to `CN1CCC(Oc2ccccc2Sc2ccc(C(F)(F)F)cc2)CC1`, the IC50 (in assay [20]; at Melanocortin receptor 4) was > 64.6 µM (inactive) in each case.
